Calls of active or inactive are those of the source. How the calls were made is not given here.

Four compounds from PubChem BioAssay AID1259407 (Chemical Carcinogenesis Research Information System (CCRIS), 2018) can be followed below.

The subject of this series is CCRIS mutagenicity, Ames/micronucleus/aberration tests. The experiment in a line: CCRIS mutagenicity studies.
Setting [1] is: Test System: AMES SALMONELLA TYPHIMURIUM, Strain/Indicator: TA98, Metabolic Activation: NONE, Method: STANDARD PLATE.
Setting [2] is: Test System: AMES SALMONELLA TYPHIMURIUM, Strain/Indicator: TA98, Metabolic Activation: RAT, LIVER, S-9, AROCLOR 1254, Method: STANDARD PLATE.
Setting [3] is: Test System: AMES SALMONELLA TYPHIMURIUM, Strain/Indicator: TA100, Metabolic Activation: NONE, Method: STANDARD PLATE.
The mark [4] stands for this setting: Test System: AMES SALMONELLA TYPHIMURIUM, Strain/Indicator: TA100, Metabolic Activation: RAT, LIVER, S-9, AROCLOR 1254, Method: STANDARD PLATE.
[5] abbreviates: Test System: AMES SALMONELLA TYPHIMURIUM, Strain/Indicator: TA1535, Metabolic Activation: NONE, Method: STANDARD PLATE.
The mark [6] stands for this setting: Test System: AMES SALMONELLA TYPHIMURIUM, Strain/Indicator: TA1535, Metabolic Activation: RAT, LIVER, S-9, AROCLOR 1254, Method: STANDARD PLATE.
Where [7] appears, read: Test System: AMES SALMONELLA TYPHIMURIUM, Strain/Indicator: TA1537, Metabolic Activation: NONE, Method: STANDARD PLATE.
Where [8] appears, read: Test System: AMES SALMONELLA TYPHIMURIUM, Strain/Indicator: TA1538, Metabolic Activation: NONE, Method: STANDARD PLATE.
[9] abbreviates: Test System: AMES SALMONELLA TYPHIMURIUM, Strain/Indicator: TA98, Metabolic Activation: HAMSTER, LIVER, S-9, AROCLOR 1254 (10%), Method: PREINCUBATION
Setting [10] is: Test System: AMES SALMONELLA TYPHIMURIUM, Strain/Indicator: TA98, Metabolic Activation: NONE, Method: PREINCUBATION
Setting [11] is: Test System: AMES SALMONELLA TYPHIMURIUM, Strain/Indicator: TA98, Metabolic Activation: RAT, LIVER, S-9, AROCLOR 1254 (10%), Method: PREINCUBATION
[12] abbreviates: Test System: AMES SALMONELLA TYPHIMURIUM, Strain/Indicator: TA100, Metabolic Activation: HAMSTER, LIVER, S-9, AROCLOR 1254 (10%), Method: PREINCUBATION
[13] abbreviates: Test System: AMES SALMONELLA TYPHIMURIUM, Strain/Indicator: TA100, Metabolic Activation: NONE, Method: PREINCUBATION
Setting [14] is: Test System: AMES SALMONELLA TYPHIMURIUM, Strain/Indicator: TA100, Metabolic Activation: RAT, LIVER, S-9, AROCLOR 1254 (10%), Method: PREINCUBATION
[15] abbreviates: Test System: AMES SALMONELLA TYPHIMURIUM, Strain/Indicator: TA1535, Metabolic Activation: RAT, LIVER, S-9, AROCLOR 1254 (10%), Method: PREINCUBATION

As to `CCC(CCC(C)O)COC(=O)c1ccccc1C(=O)O` (stereo not drawn), the mutagenic call was “inactive; negative” (Test System: AMES SALMONELLA TYPHIMURIUM, Strain/Indicator: TA97, Metabolic Activation: NONE, Method: STANDARD PLATE); “inactive; negative” (Test System: AMES SALMONELLA TYPHIMURIUM, Strain/Indicator: TA97, Metabolic Activation: RAT, LIVER, S-9, AROCLOR 1254, Method: STANDARD PLATE); “inactive; negative” (Test System: AMES SALMONELLA TYPHIMURIUM, Strain/Indicator: TA97, Metabolic Activation: RAT, LIVER, S-9, DI(2-ETHYLHEXYL)PHTHALATE, Method: STANDARD PLATE); “inactive; negative” under setting [1]; “inactive; negative” under setting [2]; “inactive; negative” (Test System: AMES SALMONELLA TYPHIMURIUM, Strain/Indicator: TA98, Metabolic Activation: RAT, LIVER, S-9, DI(2-ETHYLHEXYL)PHTHALATE, Method: STANDARD PLATE). The mutagenic call was “inactive; negative” under setting [3]; “inactive; negative” under setting [4]; “inactive; negative” (Test System: AMES SALMONELLA TYPHIMURIUM, Strain/Indicator: TA100, Metabolic Activation: RAT, LIVER, S-9, DI(2-ETHYLEXYL)PHTHALATE, Method: STANDARD PLATE); “inactive; negative” (Test System: AMES SALMONELLA TYPHIMURIUM, Strain/Indicator: TA102, Metabolic Activation: NONE, Method: STANDARD PLATE); “inactive; negative” (Test System: AMES SALMONELLA TYPHIMURIUM, Strain/Indicator: TA102, Metabolic Activation: RAT, LIVER, S-9, AROCLOR 1254, Method: STANDARD PLATE); “inactive; negative” (Test System: AMES SALMONELLA TYPHIMURIUM, Strain/Indicator: TA102, Metabolic Activation: RAT, LIVER, S-9, DI(2-ETHYLHEXYL)PHTHALATE, Method: STANDARD PLATE).

For `CCc1ccc2c(c1[N+](=O)[O-])C(=O)c1ccccc1C2=O`, the mutagenic call is, setting by setting: under setting [1], “inactive; negative”; under setting [3], “inactive; negative”; under setting [4], “active; positive”; under setting [5], “inactive; negative”; under setting [6], “inactive; negative”; under setting [7], “inactive; negative”. The mutagenic call under setting [8] is “inactive; negative”.

On to `[O]=[Zr]`, for which the mutagenic call runs as follows: under setting [9], “inactive; negative”; (Test System: AMES SALMONELLA TYPHIMURIUM, Strain/Indicator: TA98, Metabolic Activation: HAMSTER, LIVER, S-9, AROCLOR 1254, Method: STANDARD PLATE) “inactive; negative”; under setting [10], “inactive; negative”; under setting [1], “inactive; negative”; under setting [11], “inactive; negative”; under setting [2], “inactive; negative”. Moreover, the mutagenic call by setting is: under setting [12], “inactive; negative”; (Test System: AMES SALMONELLA TYPHIMURIUM, Strain/Indicator: TA100, Metabolic Activation: HAMSTER, LIVER, S-9, AROCLOR 1254, Method: STANDARD PLATE) “inactive; negative”; under setting [13], “inactive; negative”; under setting [3], “inactive; negative”; under setting [14], “inactive; negative”; under setting [4], “inactive; negative”. Moreover, the mutagenic call is “inactive; negative” (Test System: AMES SALMONELLA TYPHIMURIUM, Strain/Indicator: TA1535, Metabolic Activation: HAMSTER, LIVER, S-9, AROCLOR 1254 (10%), Method: PREINCUBATION); “inactive; negative” (Test System: AMES SALMONELLA TYPHIMURIUM, Strain/Indicator: TA1535, Metabolic Activation: HAMSTER, LIVER, S-9, AROCLOR 1254, Method: STANDARD PLATE); “inactive; negative” (Test System: AMES SALMONELLA TYPHIMURIUM, Strain/Indicator: TA1535, Metabolic Activation: NONE, Method: PREINCUBATION); “inactive; negative” under setting [5]; “inactive; negative” under setting [15]; “inactive; negative” under setting [6]. Further, the mutagenic call runs as follows: (Test System: AMES SALMONELLA TYPHIMURIUM, Strain/Indicator: TA1537, Metabolic Activation: HAMSTER, LIVER, S-9, AROCLOR 1254 (10%), Method: PREINCUBATION) “inactive; negative”; (Test System: AMES SALMONELLA TYPHIMURIUM, Strain/Indicator: TA1537, Metabolic Activation: HAMSTER, LIVER, S-9, AROCLOR 1254, Method: STANDARD PLATE) “inactive; negative”; (Test System: AMES SALMONELLA TYPHIMURIUM, Strain/Indicator: TA1537, Metabolic Activation: NONE, Method: PREINCUBATION) “inactive; negative”; under setting [7], “inactive; negative”; (Test System: AMES SALMONELLA TYPHIMURIUM, Strain/Indicator: TA1537, Metabolic Activation: RAT, LIVER, S-9, AROCLOR 1254 (10%), Method: PREINCUBATION) “inactive; negative”; (Test System: AMES SALMONELLA TYPHIMURIUM, Strain/Indicator: TA1537, Metabolic Activation: RAT, LIVER, S-9, AROCLOR 1254, Method: STANDARD PLATE) “inactive; negative”. In addition, the mutagenic call (Test System: AMES SALMONELLA TYPHIMURIUM, Strain/Indicator: TA1538, Metabolic Activation: HAMSTER, LIVER, S-9, AROCLOR 1254, Method: STANDARD PLATE) was “inactive; negative”; the mutagenic call under setting [8] was “inactive; negative”; the mutagenic call (Test System: AMES SALMONELLA TYPHIMURIUM, Strain/Indicator: TA1538, Metabolic Activation: RAT, LIVER, S-9, AROCLOR 1254, Method: STANDARD PLATE) was “inactive; negative”; the mutagenic call (Test System: MOUSE LYMPHOMA, Strain/Indicator: L5178Y (TK+/TK-), Metabolic Activation: NONE, Method: SUSPENSION/PLATE) was “inactive; negative. reevaluation of results: negative”; the mutagenic call (Test System: MOUSE LYMPHOMA, Strain/Indicator: L5178Y (TK+/TK-), Metabolic Activation: RAT, LIVER, S-9, AROCLOR 1254, Method: SUSPENSION/PLATE) was “inactive; negative. reevaluation of results: negative”.

With `O=[N+]([O-])c1ccc(Nc2ccccc2O)c([N+](=O)[O-])c1`, the mutagenic call was “active; positive” (Test System: AMES SALMONELLA TYPHIMURIUM, Strain/Indicator: TA97, Metabolic Activation: HAMSTER, LIVER, S-9, AROCLOR 1254 (10%), Method: PREINCUBATION); “active; positive” (Test System: AMES SALMONELLA TYPHIMURIUM, Strain/Indicator: TA97, Metabolic Activation: NONE, Method: PREINCUBATION); “active; positive” (Test System: AMES SALMONELLA TYPHIMURIUM, Strain/Indicator: TA97, Metabolic Activation: RAT, LIVER, S-9, AROCLOR 1254 (10%), Method: PREINCUBATION); “active; positive” under setting [9]; “active; positive” under setting [10]; “active; positive” under setting [11]. Moreover, the mutagenic call was “active; positive” under setting [12], “inactive; negative” under setting [13], “active; positive” under setting [14] and “active; positive” under setting [15].
